Measurements reported in US20170204380A1, “GLYCOSYL TRANSFERASES AND THEIR USES” (TECHNISCHE UNIVERSITAT MUNCHEN, priority 2014, published 2017).
Numbering of substitutions follows the chain as printed. Read-outs that look alike come from different tables or passages of the source. Values belong to the molecule of their own block, whether it stands above or below them.

Tests used:
VvGT14a = VvGT14a (Vitis vinifera, UniProt F6H0R6); assay: Substrate screening, radiochemical analysis with UDP-[14C]glucose; format: biochemical
Sequence of VvGT14a (F6H0R6 entry or part of it): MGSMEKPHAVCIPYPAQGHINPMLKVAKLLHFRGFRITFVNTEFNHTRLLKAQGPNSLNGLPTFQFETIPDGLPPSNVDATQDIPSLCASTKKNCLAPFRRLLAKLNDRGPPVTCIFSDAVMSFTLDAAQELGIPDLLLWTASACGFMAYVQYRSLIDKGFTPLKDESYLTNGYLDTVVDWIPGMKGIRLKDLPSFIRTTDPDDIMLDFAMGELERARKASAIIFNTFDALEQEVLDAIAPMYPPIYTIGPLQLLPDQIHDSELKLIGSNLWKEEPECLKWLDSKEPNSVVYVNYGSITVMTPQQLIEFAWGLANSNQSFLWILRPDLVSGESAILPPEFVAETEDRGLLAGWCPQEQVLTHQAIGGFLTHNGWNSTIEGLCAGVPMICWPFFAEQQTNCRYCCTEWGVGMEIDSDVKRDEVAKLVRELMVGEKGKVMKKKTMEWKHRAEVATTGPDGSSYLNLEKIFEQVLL
Procedure: (§1) In the initial screening, each reaction mixture (200 μL in total) contained Tris-HCl buffer (100 mM, pH 8, 10 mM 2-mercaptoethanol), 37 pmol UDP-[^14C]glucose (0.01 μCi, Biotrend, Köln, Germany), substrate (50 μL of a 1 mg/mL stock solution) and purified protein (0.5-0.8 μg/μL). […] The organic phase was mixed with 2 mL Pro Flow P+ cocktail (Meridian Biotechnologies Ltd., Epsom, UK) and radioactivity was determined by liquid scintillation counting (LSC, Tri-Carb 2800TR, Perkin Elmer, Waltham Mass., USA). Additionally, negative controls without substrate were performed.
(§2) The recombinant proteins were expressed with an N-terminal GST-tag, affinity purified and verified by SDS-PAGE and Western Blot using GST-specific antibody.

VvGT16 = VvGT16 (Vitis vinifera, UniProt F6HTJ4); assay: as above; format: biochemical
Sequence of VvGT16 (F6HTJ4 entry or part of it): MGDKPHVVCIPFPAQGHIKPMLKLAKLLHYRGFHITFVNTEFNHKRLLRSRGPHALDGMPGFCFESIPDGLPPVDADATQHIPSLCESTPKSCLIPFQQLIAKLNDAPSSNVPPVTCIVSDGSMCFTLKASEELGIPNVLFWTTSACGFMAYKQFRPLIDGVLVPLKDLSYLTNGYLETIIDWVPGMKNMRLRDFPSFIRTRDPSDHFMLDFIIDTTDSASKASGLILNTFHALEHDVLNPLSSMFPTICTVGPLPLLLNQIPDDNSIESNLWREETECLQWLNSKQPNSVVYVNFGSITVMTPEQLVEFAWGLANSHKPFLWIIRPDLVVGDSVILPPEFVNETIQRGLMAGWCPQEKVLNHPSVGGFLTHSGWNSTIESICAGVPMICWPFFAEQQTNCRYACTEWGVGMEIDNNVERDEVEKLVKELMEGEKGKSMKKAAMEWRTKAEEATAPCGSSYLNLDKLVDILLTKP
Procedure: as §1, §2

VvGT15a = VvGT15a (Vitis vinifera, UniProt A0ABY9C1E0); assay: as above; format: biochemical
Procedure: as §1, §2

VvGT15c = VvGT15c (Vitis vinifera, UniProt A0ABY9C1E0); assay: as above; format: biochemical
Sequence of VvGT15c (A0ABY9C1E0 entry or part of it): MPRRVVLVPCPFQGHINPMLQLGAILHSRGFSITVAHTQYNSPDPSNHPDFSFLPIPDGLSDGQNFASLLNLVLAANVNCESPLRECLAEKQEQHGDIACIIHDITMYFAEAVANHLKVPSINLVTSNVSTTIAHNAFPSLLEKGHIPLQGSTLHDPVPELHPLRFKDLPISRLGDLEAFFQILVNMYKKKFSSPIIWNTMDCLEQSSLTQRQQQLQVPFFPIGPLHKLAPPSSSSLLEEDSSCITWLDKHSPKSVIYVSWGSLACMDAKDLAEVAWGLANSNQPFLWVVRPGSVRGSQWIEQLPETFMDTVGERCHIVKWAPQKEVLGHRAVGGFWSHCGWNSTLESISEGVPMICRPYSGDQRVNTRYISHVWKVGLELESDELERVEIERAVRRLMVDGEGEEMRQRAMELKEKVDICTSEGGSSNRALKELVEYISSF
Procedure: as §1, §2

VvGT15b = VvGT15b (Vitis vinifera, UniProt A0ABY9C1E0); assay: as above; format: biochemical
Sequence of VvGT15b (A0ABY9C1E0 entry or part of it): as above
Procedure: as §1, §2

[1] = substrate: CC(C)=CCC[C@H](C)CCO; assay: purified protein, by the assay type; details: UDP-glucose fixed 833 μM (for UDP-glucose: geraniol fixed 1.25 mM), Tris-HCl pH 7.5, 30° C.
[2] = substrate: CC(C)=CCC/C(C)=C\CO; assay: purified protein, by the assay type; format: biochemical, Vitis vinifera; details: UDP-glucose fixed 833 μM (for UDP-glucose: geraniol fixed 1.25 mM), Tris-HCl pH 7.5, 30° C.

conversion as substrate (in words) (VvGT14a): catalytic activity | conversion as substrate (in words) (VvGT16): transformed
Molecule: CC(C)=CCO [3-methyl-2-butenol]

conversion as substrate (in words) (VvGT14a): catalytic activity
Molecule: C=C(C)CCO [3-methyl-3-butenol]

Molecule: C=CC(C)(O)CC/C=C(\C)CO (stereo not shown) [8-hydroxylinalool]
conversion as substrate (in words) (VvGT14a): catalytic activity | conversion as substrate (in words) (VvGT15a): able to use | conversion as substrate (in words) (VvGT15c): able to use

Molecule: OCc1ccccc1 [benzyl alcohol]
conversion as substrate (in words) (VvGT14a): catalytic activity | conversion as substrate (in words) (VvGT16): highest relative activity

Molecule: CC/C=C\CCO [cis 3-hexenol]
conversion as substrate (in words) (VvGT14a): catalytic activity | conversion as substrate (in words) (VvGT16): transformed

Molecule: C=CCc1ccc(O)c(OC)c1 [eugenol]
conversion as substrate (in words) (VvGT14a): catalytic activity

conversion as substrate (in words) (VvGT14a): catalytic activity | conversion as substrate (in words) (VvGT15a): low activity
Molecule: CC(C)=CCCC(C)=CCCC(C)=CCO [farnesol]

conversion as substrate (in words) (VvGT15a): glucosylated primarily | conversion as substrate (in words) (VvGT15b): glucosylated primarily | conversion as substrate (in words) (VvGT15c): glucosylated primarily
Molecule: CCCCCCO [hexanol]

Molecule: N#CC(O)c1ccccc1 (stereo not shown) [mandelonitrile]
conversion as substrate (in words) (VvGT14a): catalytic activity | conversion as substrate (in words) (VvGT14a; listed as Mandelonitrile): poor substrate | conversion as substrate (in words) (VvGT15a): not accepted at all | conversion as substrate (in words) (VvGT15b): not accepted at all | conversion as substrate (in words) (VvGT15c): not accepted at all

conversion as substrate (in words) (VvGT15a): glucosylated primarily | conversion as substrate (in words) (VvGT15b): glucosylated primarily | conversion as substrate (in words) (VvGT15c): glucosylated primarily
Molecule: CCCCCCCCO [octanol]

conversion as substrate (in words) (VvGT14a): catalytic activity | conversion as substrate (in words) (VvGT15a): able to use | conversion as substrate (in words) (VvGT15c): able to use | conversion as substrate (in words) (VvGT16): transformed
Molecule: CCC/C=C/CO [trans 2-hexenol]

B1: VvGT15a (Vitis vinifera) (protein)
chain: MPRRVVLVPCPFQGHINPMLQLGAILHSRGFSITVAHTQYNSPDPSNHPDFSFLPIPDGLSDGQNFASLLNLVLAANVNCESPLREYLAEKQEQHGDIACIIHDITMYFAEAVANHLKVPSINLVTSNVSTTIAHNAFPSLLEKGHIPLQGSTLHDPVPELHPLRFKDLPISRLGDLEVFFQILVNMYKKKFSSPIIWNTMDCLEQSSLTQRQQQLQVPFFPIGPLHKLAPPSSSSLLEEDSSCITWLDKQSPKSVIYVSWGSLACMDAKDLAEVAWGLANSNQPFLWVVRPGSVRGSQWIEQLPETFMDTVGERCHIVKWAPQKEVLGHRAVGGFWSHCGWNSTLESISEGVPMICRPYSGDQRVNTRYISHVWKVGLELESDELERVEIERAVRRLMVDGEGEEMRQRAMELKEKVEICTSEGGSSNRALKELVEYISSF
Km ([1]; other: VvGT15a): 29 ± 3.0 µM | kcat ([1]; other: VvGT15a): 0.02 s⁻¹ | kcat/Km ([1]; other: VvGT15a): 900 M⁻¹ s⁻¹ | Km ([2]; other: VvGT15a): 48 ± 1.7 µM | kcat ([2]; other: VvGT15a): 0.04 s⁻¹ | kcat/Km ([2]; other: VvGT15a): 700 M⁻¹ s⁻¹

B2: VvGT15b (Vitis vinifera) (protein)
chain: B1 chain with Y87C, V179A, Q251H, E419D
Km ([1]; other: VvGT15b): 55 ± 1.3 µM | kcat ([1]; other: VvGT15b): 0.03 s⁻¹ | kcat/Km ([1]; other: VvGT15b): 600 M⁻¹ s⁻¹ | Km ([2]; other: VvGT15b): 40 ± 3.7 µM | kcat ([2]; other: VvGT15b): 0.03 s⁻¹ | kcat/Km ([2]; other: VvGT15b): 800 M⁻¹ s⁻¹

B3: VvGT15c (Vitis vinifera) (protein)
chain: B1 chain with Y87C, V179A, Q251H, E419D
Km ([1]; other: VvGT15c): 20 ± 1.6 µM | kcat ([1]; other: VvGT15c): 0.03 s⁻¹ | kcat/Km ([1]; other: VvGT15c): 1800 M⁻¹ s⁻¹ | Km ([2]; other: VvGT15c): 28 ± 0.9 µM | kcat ([2]; other: VvGT15c): 0.06 s⁻¹ | kcat/Km ([2]; other: VvGT15c): 2200 M⁻¹ s⁻¹
